Assay results as given in patent US9168266B2, “Hybrid diazeniumdiolated compounds, pharmaceutical compositions, and method of treating cancer” (The United States of America, as represented by the …, priority 2011, dated 2015).
Where two headings read alike, the source gives them in different places.

Columns and labels:
A549 = assay: MTT cell proliferation assay; type: cell-based; details: A549, 72 h
Experimental: (§1) Cell lines were obtained from the American Type Culture Collection (Manassas, Va.) and cultured according to the supplier's protocol. For proliferation assays cells were seeded at 1×10^4 per well (H1693, H322M, H1703, H1944, H1355, H2122, H441, H1568) or 5×10^3 per well (H460, H1792, A549, H2023, H2030, H23) in 96-well plates and allowed to adhere for 24 h. Compounds were prepared as 10 mM stock solutions in DMSO. Increasing drug concentrations in 10 μl of PBS were added to 100 μl of the culture medium for 72 h. MTT assay (Promega, Madison, Wis.) was performed according to the manufacturer's protocol. Each concentration was represented in six repeats, and the screening was performed as at least two independent experiments. IC50 values were calculated by using Sigma Plot software (Systat Software, Inc., San Jose, Calif.).

H1355 = assay: MTT cell proliferation assay; type: cell-based
Experimental: as §1

H1568 = assay: MTT cell proliferation assay; type: cell-based
Experimental: as §1

H1693 = assay: MTT cell proliferation assay; type: cell-based
Experimental: as §1

H1792 = assay: MTT cell proliferation assay; type: cell-based
Experimental: as §1

H1944 = assay: MTT cell proliferation assay; type: cell-based
Experimental: as §1

H2023 = assay: MTT cell proliferation assay; type: cell-based
Experimental: as §1

H2030 = assay: MTT cell proliferation assay; type: cell-based
Experimental: as §1

H2122 = assay: MTT cell proliferation assay; type: cell-based
Experimental: as §1

H23 = assay: MTT cell proliferation assay; type: cell-based
Experimental: as §1

H322M = assay: MTT cell proliferation assay; type: cell-based; details: 72 h
Experimental: as §1

H441 = assay: MTT cell proliferation assay; type: cell-based
Experimental: as §1

H460 = assay: MTT cell proliferation assay; type: cell-based, human
Experimental: as §1

NSCLC cells [1] = assay: Western blot for cleaved caspase 7 (apoptosis); type: cell-based; details: 10 μm, DMSO control
Experimental: (§2) The alkaline comet assay was performed as described (Romanowska et al., Free Radical Biol. Med., 43: 1145-1155 (2007)). Western blot analysis was performed as described previously (Maciag et al., J. Pharmacol. Exp. Ther., 336: 313-320 (2011)). Primary antibodies for cleaved caspase 7 (Cell Signaling Technology, Danvers, Mass.) were used.

PARP enzyme = molecular target: T1, PARP enzyme (Homo sapiens, UniProt P09874); assay: PARP enzyme inhibition, HT Universal Colorimetric PARP assay kit with GSH; type: biochemical; details: GSH 1 mM added to activate prodrugs; absorbance 450 nm
T1 construct: purchased Trevigen, Gaithersburg, Md
Experimental: PARP enzyme inhibition was measured using HT Universal Colorimetric 96-well PARP assay kit (Trevigen, Gaithersburg, Md.), according to manufacturer's protocol with small modifications. GSH (1 mM final concentration) was added to the wells containing inhibitors, to allow activation of the prodrugs. The absorbance at 450 nm was measured.

H1703 = assay: MTT cell proliferation assay; type: cell-based
Experimental: as §1

[2] = tested on: H1703 lung adenocarcinoma cells; assay: Intracellular NO release, DAF-FM diacetate fluorescence; type: cell-based; details: 10 μM; for intracellular NO release (DAF fluorescence): 30 min, H1703 cells; for cell permeability: inferred from intracellular NO release
Experimental: The intracellular level of nitric oxide after treatment with the compounds JS-59-183 or JS-60-178 was quantified by using the NO-sensitive fluorophore 4-amino-5-methylamino-2,7 difluorofluorescein (DAF-FM) diacetate (Invitrogen, Carlsbad, Calif.). Cells growing on six-well plates were loaded with 2.5 μM DAF-FM diacetate in HBSS at 37° C. and 5% CO2. After 30 min of incubation, the cells were rinsed with HBSS to remove excess probe, and compounds in fresh HBSS was added to the cells at 10 μM final concentration. After 30 min incubation, the fluorescence of the benzotriazole derivative formed on DAF-FM's reaction with aerobic NO was analyzed by using a PerkinElmer Life and Analytical Sciences LS50B luminescence spectrometer with the excitation source at 495 nm and emission at 515 nm. All experiments were performed at least three times, each time at least in triplicate.

[3] = tested on: H1703 lung adenocarcinoma cells; assay: Intracellular ROS/RNS level, DCF fluorescence; type: cell-based; details: 10 μM, 60 min, versus DMSO
Experimental: Intracellular level of reactive oxygen/nitrogen species was quantified by the oxidation of the ROS/RNS-sensitive fluorophore 5-(and-6)-chloromethyl-2′,7′-dichlorodihydrofluorescein diacetate (Invitrogen, Carlsbad, Calif.). Cells growing on six-well plates (6×10^5/well) were loaded with 5 μM 5-(and-6)-chloromethyl-2′,7′-dichlorodihydrofluorescein diacetate in Hanks' balanced salt solution (HBSS) at 37° C. and 5% CO2. After 30 min of incubation, HBSS containing the probe was removed, cells were rinsed with HBSS, and 3 ml of fresh HBSS was added to each well followed by the addition of compounds (10 μM) or DMSO as a control. After 60 min, the cells were collected by scraping in HBSS, and 2′,7′-dichlorofluorescein (DCF) fluorescence was measured by using a PerkinElmer Life and Analytical Sciences (Waltham, Mass.) LS50B luminescence spectrometer with the excitation source at 488 nm and emission at 530 nm.

NSCLC cell lines = assay: MTT cell proliferation assay, panel summary; type: cell-based; details: range over the NSCLC cell lines, 72 h, read-out: IC50 for growth inhibition across NSCLC cell lines
Experimental: as §1

NSCLC cells [4] = assay: Alkaline comet assay (DNA strand breaks); type: cell-based
Experimental: as §2

T1 sequence (P09874 whole entry): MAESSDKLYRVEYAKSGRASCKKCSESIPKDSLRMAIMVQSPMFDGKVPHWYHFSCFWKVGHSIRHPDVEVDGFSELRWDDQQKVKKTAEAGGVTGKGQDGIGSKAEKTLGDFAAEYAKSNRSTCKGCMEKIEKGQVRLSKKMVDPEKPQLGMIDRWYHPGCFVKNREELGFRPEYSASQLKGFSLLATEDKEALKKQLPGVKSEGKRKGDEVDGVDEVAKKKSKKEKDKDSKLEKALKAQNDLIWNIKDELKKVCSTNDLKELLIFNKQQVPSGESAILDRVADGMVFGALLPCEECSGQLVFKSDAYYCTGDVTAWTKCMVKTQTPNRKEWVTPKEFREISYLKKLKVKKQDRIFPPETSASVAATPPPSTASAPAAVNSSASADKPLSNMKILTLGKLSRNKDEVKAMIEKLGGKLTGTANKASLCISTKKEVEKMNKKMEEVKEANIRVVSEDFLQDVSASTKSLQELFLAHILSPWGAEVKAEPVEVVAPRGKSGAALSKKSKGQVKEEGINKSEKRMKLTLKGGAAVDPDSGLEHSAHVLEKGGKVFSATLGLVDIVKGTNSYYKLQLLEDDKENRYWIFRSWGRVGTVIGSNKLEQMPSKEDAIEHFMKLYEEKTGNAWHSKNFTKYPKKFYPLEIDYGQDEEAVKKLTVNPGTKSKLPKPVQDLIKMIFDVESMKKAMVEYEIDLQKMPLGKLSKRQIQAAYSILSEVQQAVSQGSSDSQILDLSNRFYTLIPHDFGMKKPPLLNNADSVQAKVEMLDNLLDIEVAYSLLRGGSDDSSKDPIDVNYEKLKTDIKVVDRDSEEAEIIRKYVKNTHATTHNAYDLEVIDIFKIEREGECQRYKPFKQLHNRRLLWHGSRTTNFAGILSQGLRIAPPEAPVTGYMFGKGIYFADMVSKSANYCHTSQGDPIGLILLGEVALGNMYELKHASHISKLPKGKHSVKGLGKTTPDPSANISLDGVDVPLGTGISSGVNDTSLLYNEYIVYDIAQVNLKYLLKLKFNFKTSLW

SMILES	TGI (total growth inhibition) (A549)	TGI (total growth inhibition) (H1355; H1355, 72 h)	TGI (total growth inhibition) (H1568; H1568, 72 h)	TGI (total growth inhibition) (H1693; H1693, 72 h)	TGI (total growth inhibition) (H1792; H1792, 72 h)	TGI (total growth inhibition) (H1944; H1944, 72 h)	TGI (total growth inhibition) (H2023; H2023, 72 h, MTT)	TGI (total growth inhibition) (H2030; H2030, 72 h)	TGI (total growth inhibition) (H2122; H2122, 72 h)	TGI (total growth inhibition) (H23; H23, 72 h, MTT)	TGI (total growth inhibition) (H322M; H322M, MTT)	TGI (total growth inhibition) (H441; H441, 72 h)	TGI (total growth inhibition) (H460; H460, 72 h)	apoptotic signal (cleaved caspase 7) (NSCLC cells [1])	IC50 (PARP enzyme)	TGI (total growth inhibition) (H1703; H1703, 72 h)	intracellular NO release (DAF fluorescence) [2]	cell permeability [2]	ROS generation (DCF fluorescence) [3]	further results
O=C(c1cc(Cc2n[nH]c(=O)c3ccccc23)ccc1F)N1CCN(C(=O)C2CC2)CC1 [Olaparib, olaparib, reference compound]	100 µM	113 µM	113 µM	65 µM	38 µM	88 µM	85 µM	117 µM	140 µM	70 µM	360 µM	84 µM	37 µM	did not trigger apoptosis						IC50 (H2023; NCI-H2023, 72 h): 20 µM; IC50 (H23; Homo sapiens, NCI-H23, 72 h): 10 µM; IC50 (H322M; Homo sapiens, NCI-H322M): 50 µM
O=C(c1cccc(Cc2n[nH]c(=O)c3ccccc23)c1)N1CCN([N+]([O-])=NOc2ccc([N+](=O)[O-])cc2[N+](=O)[O-])CC1 [JS-59-183, 2,4-dinitrophenyl 4-[5-[(4-oxo-3H-phthalazin-1-yl)methyl]-benzoyl]piperazine-1-yl-1-ium-1,2-diolate]	26.0 µM	23.0 µM	9.0 µM	7.3 µM	20.0 µM	28.0 µM	32.5 µM	25.0 µM	25.0 µM	15.2 µM	14.0 µM	11.7 µM	24.8 µM	strong apoptotic signal	0.00825 µM	11.2 µM	decompose within the cell releasing NO	cell permeable	increase in ROS generation	IC50 (A549): 16.8 µM; IC50 (H1355; H1355, 72 h): 11.4 µM; IC50 (H1568; H1568, 72 h): 6.5 µM; IC50 (H1693; H1693, 72 h): 5.3 µM; IC50 (H1703; H1703, 72 h): 6.8 µM; IC50 (H1792; H1792, 72 h): 14 µM; IC50 (H1944; H1944, 72 h): 14 µM; IC50 (H2023; H2023, 72 h, MTT, read-out: IC50): 19.4 µM; IC50 (H2030; H2030, 72 h): 13.8 µM; IC50 (H2122; H2122, 72 h): 11.2 µM; IC50 (H23; H23, 72 h, MTT, read-out: IC50): 7.5 µM; IC50 (H322M; H322M, MTT, read-out: IC50): 9 µM; IC50 (H441; H441, 72 h): 8.1 µM; IC50 (H460; H460, 72 h): 13.8 µM
O=C(c1cc(Cc2n[nH]c(=O)c3ccccc23)ccc1F)N1CCN([N+]([O-])=NOc2ccc([N+](=O)[O-])cc2[N+](=O)[O-])CC1 [JS-60-178, 2,4-dinitrophenyl 4-[2-fluoro-5-[(4-oxo-3H-phthalazin-1-yl)methyl]-benzoyl]piperazine-1-yl-1-ium-1,2-diolate]	22.0 µM	15.0 µM	4.0 µM	6.6 µM	19.0 µM	19.0 µM	25.0 µM	15.2 µM	11.0 µM	12.3 µM	11.6 µM	6.2 µM	24.0 µM	strong apoptotic signal	0.0029 µM	6.7 µM	decompose within the cell releasing NO	cell permeable	increase in ROS generation	IC50 (A549; Homo sapiens): 13.5 µM; IC50 (H1355; Homo sapiens, NCI-H1355, H1355, 72 h): 8.2 µM; IC50 (H1568; NCI-H1568, H1568, 72 h): 3 µM; IC50 (H1693; Homo sapiens, NCI-H1693, H1693, 72 h): 5.4 µM; IC50 (H1703; Homo sapiens, NCI-H1703, H1703, 72 h): 4.3 µM; IC50 (H1792; Homo sapiens, NCI-H1792, H1792, 72 h): 12.7 µM; IC50 (H1944; Homo sapiens, NCI-H1944, H1944, 72 h): 10.5 µM; IC50 (H2023; NCI-H2023, H2023, 72 h, MTT, read-out: IC50): 15 µM; IC50 (H2030; Homo sapiens, NCI-H2030, H2030, 72 h): 9.2 µM; IC50 (H2122; Homo sapiens, NCI-H2122, H2122, 72 h): 7.5 µM; IC50 (H23; Homo sapiens, NCI-H23, H23, 72 h, MTT, read-out: IC50): 8.4 µM; IC50 (H322M; Homo sapiens, NCI-H322M, H322M, MTT, read-out: IC50): 7.9 µM; IC50 (H441; Homo sapiens, NCI-H441, H441, 72 h): 4.5 µM; IC50 (H460; Homo sapiens, NCI-H460, H460, 72 h): 16.4 µM; IC50 (NSCLC cell lines): 3 to 20 µM; comet signal compared with Olaparib (20 μm) (NSCLC cells [4]; 5 μM, 24 hours): stronger comet signal; DNA strand break damage by Comet assay (NSCLC cells [4]; 24 hours treatment): significant DNA strand break damage
